The source made the active and inactive calls. The rule behind the calls is not given here.
Legend:
[1] = Inhibition of Fructose-1,6-bisphosphatase (unknown origin) preincubated for 10 min followed by addition of NADP+, PGI,G6PDH and measured after 40 min by absorption based analysis; design: species or system Homo sapiens
Homo sapiens = organism: Homo sapiens; assay: Inhibition of Fructose-1,6-bisphosphatase (unknown origin) preincubated for 10 min followed by addition of NADP+, PGI,G6PDH at 10 uM measured after 40 min by absorption based analysis relative to control; details: time 50.0 min
[2] = AUC (0 to t) in ICR mouse at 5 mg/kg, iv by HPLC-MS/MS analysis; format: ADME, organism-based; details: in vivo
[3] = AUC (0 to infinity) in ICR mouse at 5 mg/kg, iv by HPLC-MS/MS analysis; format: ADME, organism-based; details: in vivo
[4] = MRT (0 to t) in ICR mouse at 5 mg/kg, iv by HPLC-MS/MS analysis; format: ADME, organism-based; details: in vivo
[5] = MRT (0 to infinity) in ICR mouse at 5 mg/kg, iv by HPLC-MS/MS analysis; format: ADME, organism-based; details: in vivo
[6] = Half life in ICR mouse at 5 mg/kg, iv by HPLC-MS/MS analysis; format: ADME, organism-based; details: in vivo
[7] = Tmax in ICR mouse at 5 mg/kg, iv by HPLC-MS/MS analysis; format: ADME, organism-based; details: in vivo
[8] = Cmax in ICR mouse at 5 mg/kg, iv by HPLC-MS/MS analysis; format: ADME, organism-based; details: in vivo
[9] = Apparent volume of distribution in ICR mouse at 5 mg/kg, iv by HPLC-MS/MS analysis; format: ADME, organism-based; details: in vivo, read-out: Vz
[10] = Clearance in ICR mouse at 5 mg/kg, iv by HPLC-MS/MS analysis; format: ADME, organism-based; details: in vivo
[11] = AUC (0 to t) in ICR mouse at 100 mg/kg, po by HPLC-MS/MS analysis; format: ADME, organism-based; details: in vivo
[12] = AUC (0 to infinity) in ICR mouse at 100 mg/kg, po by HPLC-MS/MS analysis; format: ADME, organism-based; details: in vivo
[13] = MRT (0 to t) in ICR mouse at 100 mg/kg, po by HPLC-MS/MS analysis; format: ADME, organism-based; details: in vivo
[14] = MRT (0 to infinity) in ICR mouse at 100 mg/kg, po by HPLC-MS/MS analysis; format: ADME, organism-based; details: in vivo
[15] = Half life in ICR mouse at 100 mg/kg, po by HPLC-MS/MS analysis; format: ADME, organism-based; details: in vivo
[16] = Tmax in ICR mouse at 100 mg/kg, po by HPLC-MS/MS analysis; format: ADME, organism-based; details: in vivo
[17] = Cmax in ICR mouse at 100 mg/kg, po by HPLC-MS/MS analysis; format: ADME, organism-based; details: in vivo
[18] = Apparent volume of distribution in ICR mouse at 100 mg/kg, po by HPLC-MS/MS analysis; format: ADME, organism-based; details: in vivo
[19] = Clearance in ICR mouse at 100 mg/kg, po by HPLC-MS/MS analysis; format: ADME, organism-based; details: in vivo
[20] = Oral Bioavailability in ICR mouse at 100 mg/kg by HPLC-MS/MS analysis; format: ADME, organism-based; details: in vivo
Cytochrome P450 1A2 = target: T1, Cytochrome P450 1A2 (Homo sapiens, UniProt P05177); assay: Inhibition of CYP1A2 (unknown origin) incubated for 30 min in presence of NADPH by LC-MS/MS analysis; format: ADME
T1 sequence (P05177 whole entry): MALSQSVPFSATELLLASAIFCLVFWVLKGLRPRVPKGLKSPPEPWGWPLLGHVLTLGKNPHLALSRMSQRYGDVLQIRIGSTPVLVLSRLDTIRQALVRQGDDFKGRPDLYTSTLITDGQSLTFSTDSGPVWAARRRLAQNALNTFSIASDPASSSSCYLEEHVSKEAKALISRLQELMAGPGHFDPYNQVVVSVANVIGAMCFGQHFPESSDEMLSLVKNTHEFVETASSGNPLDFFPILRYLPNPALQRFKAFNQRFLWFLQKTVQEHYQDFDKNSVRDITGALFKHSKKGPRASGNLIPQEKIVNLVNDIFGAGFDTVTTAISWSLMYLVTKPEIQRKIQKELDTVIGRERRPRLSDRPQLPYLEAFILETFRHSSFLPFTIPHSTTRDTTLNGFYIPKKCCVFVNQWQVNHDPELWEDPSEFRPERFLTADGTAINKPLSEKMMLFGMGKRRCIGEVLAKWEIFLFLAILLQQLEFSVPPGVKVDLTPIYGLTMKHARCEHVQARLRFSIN

Cytochrome P450 2C9 = Cytochrome P450 2C9 (Homo sapiens, UniProt P11712); assay: Inhibition of CYP2C9 (unknown origin) incubated for 30 min in presence of NADPH by LC-MS/MS analysis; format: ADME
Chain of Cytochrome P450 2C9 (P11712 whole entry): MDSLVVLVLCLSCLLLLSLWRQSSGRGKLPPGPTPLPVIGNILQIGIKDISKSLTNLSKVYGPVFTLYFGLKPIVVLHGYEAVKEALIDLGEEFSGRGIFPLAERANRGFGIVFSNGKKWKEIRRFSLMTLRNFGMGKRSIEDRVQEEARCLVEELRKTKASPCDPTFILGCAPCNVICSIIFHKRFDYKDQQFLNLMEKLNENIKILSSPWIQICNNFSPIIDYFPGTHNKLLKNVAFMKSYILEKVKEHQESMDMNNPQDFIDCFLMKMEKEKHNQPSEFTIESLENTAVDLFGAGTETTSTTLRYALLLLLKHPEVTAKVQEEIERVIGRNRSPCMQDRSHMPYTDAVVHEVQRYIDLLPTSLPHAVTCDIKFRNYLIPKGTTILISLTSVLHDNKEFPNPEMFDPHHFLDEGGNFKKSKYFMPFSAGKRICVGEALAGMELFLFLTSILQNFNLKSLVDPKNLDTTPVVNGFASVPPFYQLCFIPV

Cytochrome P450 2C19 = Cytochrome P450 2C19 (Homo sapiens, UniProt P33261); assay: Inhibition of CYP2C19 (unknown origin) incubated for 30 min in presence of NADPH by LC-MS/MS analysis; format: ADME
Chain of Cytochrome P450 2C19 (P33261 whole entry): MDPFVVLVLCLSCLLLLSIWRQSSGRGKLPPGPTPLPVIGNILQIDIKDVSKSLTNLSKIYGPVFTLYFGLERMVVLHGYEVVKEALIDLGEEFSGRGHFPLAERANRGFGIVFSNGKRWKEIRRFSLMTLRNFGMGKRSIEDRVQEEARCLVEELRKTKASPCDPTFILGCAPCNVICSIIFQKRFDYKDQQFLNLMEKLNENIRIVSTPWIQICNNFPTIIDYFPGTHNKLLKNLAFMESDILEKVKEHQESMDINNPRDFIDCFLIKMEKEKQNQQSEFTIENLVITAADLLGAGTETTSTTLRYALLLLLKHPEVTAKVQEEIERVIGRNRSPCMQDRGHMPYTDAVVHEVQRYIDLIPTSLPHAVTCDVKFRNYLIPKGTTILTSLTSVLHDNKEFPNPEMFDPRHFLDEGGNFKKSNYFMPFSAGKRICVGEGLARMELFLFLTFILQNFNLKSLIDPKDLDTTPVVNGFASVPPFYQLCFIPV

Cytochrome P450 2D6 = Cytochrome P450 2D6 (Homo sapiens, UniProt P10635); assay: Inhibition of CYP2D6 (unknown origin) incubated for 30 min in presence of NADPH by LC-MS/MS analysis; format: ADME
Chain of Cytochrome P450 2D6 (P10635 whole entry): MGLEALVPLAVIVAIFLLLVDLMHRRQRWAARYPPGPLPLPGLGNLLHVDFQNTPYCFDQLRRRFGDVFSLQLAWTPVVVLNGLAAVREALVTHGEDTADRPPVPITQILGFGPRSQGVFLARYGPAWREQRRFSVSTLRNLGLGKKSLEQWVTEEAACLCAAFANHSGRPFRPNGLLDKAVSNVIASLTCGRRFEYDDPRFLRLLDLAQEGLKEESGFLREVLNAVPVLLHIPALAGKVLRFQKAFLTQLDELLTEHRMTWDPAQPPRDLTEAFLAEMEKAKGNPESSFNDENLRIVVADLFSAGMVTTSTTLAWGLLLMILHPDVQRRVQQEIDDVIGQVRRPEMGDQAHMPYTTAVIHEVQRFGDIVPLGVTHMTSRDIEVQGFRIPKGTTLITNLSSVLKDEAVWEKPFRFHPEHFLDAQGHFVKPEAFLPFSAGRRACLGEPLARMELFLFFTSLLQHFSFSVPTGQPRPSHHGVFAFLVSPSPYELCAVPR

Cytochrome P450 3A4 = Cytochrome P450 3A4 (Homo sapiens, UniProt P08684); assay: Inhibition of CYP3A4 (unknown origin) incubated for 30 min in presence of NADPH by LC-MS/MS analysis; format: ADME
Chain of Cytochrome P450 3A4 (P08684 whole entry): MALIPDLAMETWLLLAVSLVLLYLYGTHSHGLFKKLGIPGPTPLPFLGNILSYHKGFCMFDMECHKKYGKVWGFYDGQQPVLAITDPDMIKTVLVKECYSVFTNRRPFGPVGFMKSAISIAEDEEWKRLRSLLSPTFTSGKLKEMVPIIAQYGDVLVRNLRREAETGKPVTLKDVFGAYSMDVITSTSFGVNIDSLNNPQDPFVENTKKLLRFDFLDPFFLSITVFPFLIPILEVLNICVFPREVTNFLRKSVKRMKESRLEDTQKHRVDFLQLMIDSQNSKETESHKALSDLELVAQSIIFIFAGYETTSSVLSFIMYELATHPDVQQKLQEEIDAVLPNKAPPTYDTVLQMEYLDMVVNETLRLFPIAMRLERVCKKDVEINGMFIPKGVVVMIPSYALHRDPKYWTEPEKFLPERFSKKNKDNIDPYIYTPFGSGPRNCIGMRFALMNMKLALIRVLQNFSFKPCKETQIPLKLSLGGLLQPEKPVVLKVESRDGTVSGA

Cytochrome P450 3A5 = Cytochrome P450 3A5 (Homo sapiens, UniProt P20815); assay: Inhibition of CYP3A5 (unknown origin) incubated for 30 min in presence of NADPH by LC-MS/MS analysis; format: ADME
Chain of Cytochrome P450 3A5 (P20815 whole entry): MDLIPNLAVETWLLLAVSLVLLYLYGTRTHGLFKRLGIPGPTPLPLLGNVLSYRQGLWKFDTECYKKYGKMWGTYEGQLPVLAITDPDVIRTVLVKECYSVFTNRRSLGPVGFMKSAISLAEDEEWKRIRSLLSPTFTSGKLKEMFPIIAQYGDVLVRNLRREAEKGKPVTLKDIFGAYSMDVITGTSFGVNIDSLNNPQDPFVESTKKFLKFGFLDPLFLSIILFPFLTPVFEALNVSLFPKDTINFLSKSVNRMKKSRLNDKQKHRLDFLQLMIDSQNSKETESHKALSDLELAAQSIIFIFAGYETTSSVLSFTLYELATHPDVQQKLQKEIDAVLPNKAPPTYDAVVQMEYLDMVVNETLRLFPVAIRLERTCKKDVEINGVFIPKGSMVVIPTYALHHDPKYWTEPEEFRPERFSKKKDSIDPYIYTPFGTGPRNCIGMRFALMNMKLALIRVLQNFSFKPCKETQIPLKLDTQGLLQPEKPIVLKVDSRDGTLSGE

Mus musculus [21] = assay: Anti-diabetic activity against 16 hrs fasted ICR mouse assessed as reduced blood glucose level at 150 mg/kg, po measured after 30 to 90 min by oral pyruvate tolerance test; format: functional, organism-based; details: time 30-90 min
[22] = Inhibition of Fructose-1,6-bisphosphatase (unknown origin); design: species or system Homo sapiens
Mus musculus [23] = assay: Anti-diabetic activity against 16 hrs fasted ICR mouse assessed as reduced blood glucose level at 150 mg/kg, po measured after 90 min by oral pyruvate tolerance test; format: functional, organism-based

COc1ccc(S(=O)(=O)NC(=O)c2cc(Cl)cc(-c3nc4ccccc4[nH]3)c2)cc1
IC50 [1]: 2.08 µM | inhibition (Homo sapiens): 81.8% | AUC(0-t) [2]: 15900 ng·h/mL | AUC(0-inf) [3]: 15900 ng·h/mL | MRT last [4]: 1.86 h | MRT inf [5]: 1.86 h | half-life [6]: 1.79 h | Tmax [7]: 1.98 min | Cmax [8]: 33500 ng/mL | Vd [9]: 0.813 L/kg | clearance [10]: 5.27 mL/min/kg | AUC(0-t) [11]: 19500 ng·h/mL | AUC(0-inf) [12]: 19500 ng·h/mL | MRT last [13]: 3 h | MRT inf [14]: 3 h | half-life [15]: 1.29 h | Tmax [16]: 0.25 h | Cmax [17]: 7160 ng/mL | Vz [18]: 9.799 L/kg | CL/F [19]: 87 mL/min/kg | bioavailability [20]: 6.15% | IC50 (Cytochrome P450 1A2): 47.2 µM | IC50 (Cytochrome P450 2C9): 1.31 µM | IC50 (Cytochrome P450 2C19): > 50 µM | IC50 (Cytochrome P450 2D6): 36.8 µM | IC50 (Cytochrome P450 3A4): 20 µM | IC50 (Cytochrome P450 3A5): 20 µM | Activity (Mus musculus [21]): Active

O=S(=O)(Nc1cccc(-c2nc3ccccc3n2C2CCCCC2)c1)c1ccc(Cl)cc1
inhibition (Homo sapiens): 24.8%

O=c1cc(-c2ccccc2)oc2ccc3ccccc3c12 [BETA-NAPHTHOFLAVONE]
IC50 (Cytochrome P450 1A2): 0.148 µM

COc1ccc(S(=O)(=O)NC(=O)c2cccc(-c3nc4ccccc4n3C(C)C)c2)cc1
inhibition (Homo sapiens): 0%

CC(=O)Nc1ccc(-n2c(-c3cccc(NS(=O)(=O)c4ccc(Cl)cc4)c3)nc3ccccc32)cc1
inhibition (Homo sapiens): 21.1%

COc1ccc(S(=O)(=O)NC(=O)c2cccc(-c3nc4ccccc4[nH]3)c2)cc1
inhibition (Homo sapiens): 20.8%

COc1ccc(S(=O)(=O)Nc2cccc(-c3nc4ccccc4[nH]3)c2)cc1
inhibition (Homo sapiens): 0%

O=S(=O)(Nc1ccccc1-c1nc2ccccc2n1C1CCCCC1)c1ccc(Cl)cc1
inhibition (Homo sapiens): 39.8%

O=S(=O)(Nc1cccc(-c2nc3ccccc3n2Cc2ccc(Cl)cc2)c1)c1ccc(Cl)cc1
inhibition (Homo sapiens): 16.2%

COc1ccc(S(=O)(=O)Nc2cccc(-c3nc4ccccc4n3Cc3ccc(Cl)cc3)c2)cc1
inhibition (Homo sapiens): 7.1%

Cn1c(-c2cccc(C(=O)NS(=O)(=O)c3ccc(Cl)cc3)c2)nc2ccccc21
inhibition (Homo sapiens): 4%

O=C(NS(=O)(=O)c1ccc(F)cc1)c1ccccc1N1CCN(Cc2nc3ccccc3n2C2CCCCC2)CC1
inhibition (Homo sapiens): 64.3%

S=C(SSC(=S)n1cccc1)n1cccc1
IC50 [22]: 0.13 µM

COc1ccc(S(=O)(=O)Nc2cccc(-c3nc4ccccc4n3C3CCCCC3)c2)cc1
inhibition (Homo sapiens): 47.4%

CC(=O)Nc1ccc(-n2c(-c3ccccc3NS(=O)(=O)c3ccc(Cl)cc3)nc3ccccc32)cc1
inhibition (Homo sapiens): 25%

O=C(NS(=O)(=O)c1ccc(F)cc1)c1cc(Cl)cc(-c2nc3ccccc3[nH]2)c1
IC50 [1]: 2.16 µM | inhibition (Homo sapiens): 96.3% | Activity (Mus musculus [23]): Active

COc1ccc(S(=O)(=O)Nc2cc(Cl)cc(-c3nc4ccccc4[nH]3)c2)cc1
inhibition (Homo sapiens): 18.2%

O=C(NS(=O)(=O)c1ccc(Cl)cc1)c1cc(Cl)cc(-c2nc3ccccc3[nH]2)c1
IC50 [1]: 1.4 µM | inhibition (Homo sapiens): 88.3% | Activity (Mus musculus [23]): Active

COc1ccc(S(=O)(=O)Nc2ccccc2-c2nc3ccccc3n2Cc2ccc(Cl)cc2)cc1
inhibition (Homo sapiens): 5.6%

O=S(=O)(Nc1cccc(-c2nc3ccccc3[nH]2)c1)c1ccc(Cl)cc1
inhibition (Homo sapiens): 0%

CC(C)n1c(-c2cccc(C(=O)NS(=O)(=O)c3ccc(Cl)cc3)c2)nc2ccccc21
inhibition (Homo sapiens): 0%

COc1ccc(S(=O)(=O)Nc2ccccc2-c2nc3ccccc3n2C2CCCCC2)cc1
inhibition (Homo sapiens): 17.3%

O=S(=O)(Nc1cccc(-c2nc3ccccc3n2-c2ccc(Cl)cc2)c1)c1ccc(Cl)cc1
IC50 [1]: 8.04 µM | inhibition (Homo sapiens): 63.5%

COc1ccc(S(=O)(=O)Nc2ccccc2-c2nc3ccccc3n2-c2ccc(Cl)cc2)cc1
inhibition (Homo sapiens): 28.9%

COc1ccc(S(=O)(=O)NC(=O)c2cccc(-c3nc4ccccc4n3C)c2)cc1
inhibition (Homo sapiens): 5.7%

COc1ccc(S(=O)(=O)Nc2ccccc2-c2nc3ccccc3n2-c2ccc(NC(C)=O)cc2)cc1
inhibition (Homo sapiens): 36.8%

Nc1ncnc2c1ncn2[C@@H]1O[C@H](COP(=O)(O)O)[C@@H](O)[C@H]1O [ADENOSINE PHOSPHATE]
IC50 [1]: 3.29 µM | inhibition (Homo sapiens): 81.3%

COc1ccc(S(=O)(=O)Nc2cccc(-c3nc4ccccc4n3-c3ccc(Cl)cc3)c2)cc1
IC50 [1]: 5.35 µM | inhibition (Homo sapiens): 52.6%

COc1ccc(S(=O)(=O)Nc2cccc(-c3nc4ccccc4n3C)c2)cc1
inhibition (Homo sapiens): 5.7%

COc1ccc(S(=O)(=O)Nc2cccc(-c3nc4ccccc4n3C(C)C)c2)cc1
inhibition (Homo sapiens): 7.1%

COc1ccccc1CNC(=O)N1C(=O)c2ccccc2S1(=O)=O
IC50 [22]: 1.7 µM

CC(C)n1c(-c2cccc(NS(=O)(=O)c3ccc(Cl)cc3)c2)nc2ccccc21
inhibition (Homo sapiens): 7.1%

COc1ccc(S(=O)(=O)Nc2cccc(-c3nc4ccccc4n3-c3ccc(NC(C)=O)cc3)c2)cc1
inhibition (Homo sapiens): 36.8%

O=C(NS(=O)(=O)c1ccc(Cl)cc1)c1cccc(-c2nc3ccccc3[nH]2)c1
inhibition (Homo sapiens): 0%

O=S(=O)(Nc1ccccc1-c1nc2ccccc2n1Cc1ccc(Cl)cc1)c1ccc(Cl)cc1
inhibition (Homo sapiens): 10.2%

CC(C)=CCc1c(O)cc(O)c2c(=O)c(O)c(-c3ccc(O)c(O)c3)oc12
IC50 [22]: 3.62 µM

O=S(=O)(Nc1cc(Cl)cc(-c2nc3ccccc3[nH]2)c1)c1ccc(Cl)cc1
inhibition (Homo sapiens): 5.4%

O=S(=O)(Nc1ccccc1-c1nc2ccccc2n1-c1ccc(Cl)cc1)c1ccc(Cl)cc1
inhibition (Homo sapiens): 28.9%

Cn1c(-c2cccc(NS(=O)(=O)c3ccc(Cl)cc3)c2)nc2ccccc21
inhibition (Homo sapiens): 0%

Source: ChEMBL document CHEMBL6071168, “Discovery of novel fructose-1,6-bisphosphatase inhibitors bearing benzimidazole scaffold using a dual-ligand molecular docking model” (Eur J Med Chem, 2024)
